Reference: patent publication US5084464A, “Conjugated γ-hydroxybutenolide compounds and antiulcer agents containing the same as an effective ingredient” (Kuraray Company Ltd., priority 1989, dated 1992)

How the values were obtained:
[1] = tested on: HCl-ethanol-induced ulcers generated at the mucosa of the stomach; assay: Antiulcer Activity (HCl-Ethanol Ulcer); format: in vivo; details: oral, one hour before HCl-ethanol, rats
Protocol: Antiulcer Activity (HCl-Ethanol Ulcer)
1.5 ml of a 60% aqueous ethanol solution containing 150 mM hydrochloric acid was orally administered to rats. One hour thereafter the rats were sacrificed and the length (mm) of HCl-ethanol-induced ulcers generated at the mucosa of the stomach were measured. Sum of the length of ulcer per animal is defined as ulcer coefficient. Specimens each was orally administered one hour before the HCl-ethanol administration. Inhibition rate was calculated as the ratio of the difference of ulcer coefficients of the control group and specimen-administered group to the ulcer coefficient of the control group.

[2] = Acute Toxicity (oral administration); details: mouse, in vivo
Protocol: Acute toxicity tests through oral administration were carried out using male ICR-strain mice (5 weeks old).

[3] = Rattus norvegicus, 1 h, read-out: Inhibition Rate

CC(=O)CCC=C(C)CCC=C(C)CCC=C(C)CCC=C(C)C [Teprenone, reference compound]
inhibition in vivo at 25 mg/kg ([1]; Rattus norvegicus, 1 h, 25 mg/kg, read-out: Inhibition Rate): 48.9%

O=C1C=C(/C=C/c2cccc(C(=O)c3ccccc3)c2)C(O)O1 (stereo not shown) [(3)]
inhibition in vivo at 5 mg/kg [1, 3]: 69.7%

CN(C)c1ccc(/C=C/C2=CC(=O)OC2O)cc1 (stereo not shown) [(2)]
inhibition in vivo at 2.5 mg/kg [1, 3]: 37.5%

O=C1C=C(/C=C/c2ccco2)C(O)O1 (stereo not shown) [(7)]
inhibition in vivo at 2.5 mg/kg [1, 3]: 96%

O=C1C=C(/C=C/C=C/C=C/c2ccccc2)C(O)O1 (stereo not shown) [(10)]
inhibition in vivo at 5 mg/kg [1, 3]: 61.8%

O=C1C=C(/C=C/c2cccc(Cc3cccnc3)c2)C(O)O1 (stereo not shown) [(4)]
inhibition in vivo at 5 mg/kg [1, 3]: 42%

COc1ccc2cc(/C=C/C3=CC(=O)OC3O)ccc2c1 (stereo not shown) [(6)]
inhibition in vivo at 5 mg/kg [1, 3]: 61.3%

CC(C)=C/C=C/C1=CC(=O)OC1O (stereo not shown) [Compound (1), 5-hydroxy-4-[4-methyl-1,3-pentadienyl]-2(5H)-furanone]
inhibition in vivo at 5 mg/kg [1, 3]: 90.6% | LD50 [2]: ≥ 2000 mg/kg

O=C1C=C(/C=C/c2cccs2)C(O)O1 (stereo not shown) [(8)]
inhibition in vivo at 2.5 mg/kg [1, 3]: 95.5%

CC(=O)c1ccc2c(c1)C(=O)C1(CC1)O2 [Spizofurone, reference compound]
Inhibition Rate ([1]; 100 mg/kg): 86.6%

O=C1C=C(/C=C/C=C/c2ccccc2)C(O)O1 (stereo not shown) [(9)]
inhibition in vivo at 5 mg/kg [1, 3]: 98.6%

O=C1C=C(/C=C/c2cccc3ccccc23)C(O)O1 (stereo not shown) [(5)]
inhibition in vivo at 2.5 mg/kg [1, 3]: 94%
